Results: PubChem BioAssay (NCI)
“And” between values parts separate entries of the source, which are not always exact repeats. Equal values may be shown once.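 Each compound was tested at five concentrations against cells in 96-well plates for 48 hours. At the GI50, growth is halved. At the TGI there is no net growth.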

Columns and labels:
Experiment in all cases: growth of human tumour cells (NCI), 48 h
HT29 colon = system: HT29 colon
SNB-19 CNS = system: SNB-19 CNS
A498 renal = system: A498 renal
SK-OV-3 ovarian = system: SK-OV-3 ovarian
SW-620 colon = system: SW-620 colon
OVCAR-4 ovarian = system: OVCAR-4 ovarian
TK-10 renal = system: TK-10 renal
MOLT-4 leukemia = system: MOLT-4 leukemia
UO-31 renal = system: UO-31 renal
PC-3 prostate = system: PC-3 prostate

| Compound | TGI (HT29 colon) | TGI (SNB-19 CNS) | TGI (A498 renal) | TGI (SK-OV-3 ovarian) | TGI (SW-620 colon) | TGI (OVCAR-4 ovarian) | TGI (TK-10 renal) | GI50 (HT29 colon) | GI50 (SNB-19 CNS) | GI50 (MOLT-4 leukemia) | TGI (MOLT-4 leukemia) | GI50 (A498 renal) | GI50 (SK-OV-3 ovarian) | GI50 (SW-620 colon) | GI50 (OVCAR-4 ovarian) | GI50 (TK-10 renal) | GI50 (UO-31 renal) | TGI (UO-31 renal) | GI50 (PC-3 prostate) | TGI (PC-3 prostate) |
| --- | --- | --- | --- | --- | --- | --- | --- | --- | --- | --- | --- | --- | --- | --- | --- | --- | --- | --- | --- | --- |
| COc1ccc2c3c(c(C(=O)O)oc13)C(CCC(=O)O)CC2 (centres undefined) | > 100 µM | > 100 µM | > 100 µM | > 100 µM | > 100 µM | > 100 µM | > 100 µM |  |  |  |  |  |  |  |  |  |  |  |  |  |
| CCOC(=O)C1=C(C)N(Cc2ccc(Cl)cc2Cl)[C@]2(C#N)C(O)=C(Cl)C(Cl)=C(O)[C@]12C#N | > 100 µM | > 100 µM | > 100 µM | > 100 µM | 82.9 µM | > 100 µM | > 100 µM | > 100 µM | 92.8 µM | 27.9 µM | 61.6 µM | > 100 µM | > 100 µM | 31.8 µM | > 100 µM | 84.7 µM | 92 µM | > 100 µM |  |  |
| O=c1c2cccc3cccc(c4n1CCCN=4)c32 | > 100 µM |  | > 100 µM | > 100 µM | > 100 µM | > 100 µM | > 100 µM |  |  |  | > 100 µM |  |  |  |  |  |  | > 100 µM |  |  |
| CCN(CC)CCCNc1c2ccc(Cl)cc2nc2ccc(OC)cc12 | 1.56 µM | 4.57 µM | 2.86 µM |  | 2.36 µM | 2.77 µM | 4.83 µM | 0.033 µM | 0.0587 µM | 0.0338 µM | 2.91 µM | 1.51 µM |  | 0.0401 µM | 0.0304 µM | 1.69 µM | 1.63 µM | 4.83 µM |  |  |
| CN(C)CCNC(=O)c1cccc2cc3ccc4ccccc4c3nc12 | 0.701 µM | 0.919 µM | 0.0693 µM | 0.679 µM | 1.19 µM | 0.752 µM | 0.904 µM |  |  |  | 0.0678 µM |  |  |  |  |  |  | 0.218 µM |  |  |
| C1CCN2CC3CONC3C2C1 (centres undefined) | > 100 µM | > 100 µM | > 100 µM |  | > 100 µM | > 100 µM | > 100 µM |  |  |  | > 100 µM |  |  |  |  |  |  | > 100 µM |  |  |
| C=C(C)[C@@H]1CC[C@]2(C(=O)n3ccnc3)CC[C@]3(C)[C@H](CC[C@@H]4[C@@]5(C)CCCNC(C)(C)[C@@H]5CC[C@]43C)[C@@H]12 | 2.17 µM | 6.12 µM | 29.8 µM | 16.2 µM | 3.39 µM |  | 6.82 µM | 0.785 µM | 2.54 µM |  |  | 10.4 µM | 3.72 µM | 1.68 µM |  | 2.58 µM | 1.38 µM | 2.72 µM | 1.29 µM | 2.67 µM |
| CC(C)(C)c1cc(C(OCCl)(C(F)(F)F)C(F)(F)F)c2c(c1)C(C(F)(F)F)(C(F)(F)F)OC21c2ccccc2C(=O)c2ccccc21 | > 100 µM | > 100 µM |  |  | > 100 µM | > 100 µM | > 100 µM |  |  |  | > 100 µM |  |  |  |  |  |  | > 100 µM |  |  |
| CC1CCC2c3c([nH]c4ccccc34)C3C(=O)N(c4ccccc4)C(=O)C3C2C1 (centres undefined) | > 250 µM | > 250 µM |  | 28.5 µM and 99.6 µM | > 250 µM | > 250 µM | 67.5 µM and 181 µM |  | 69.2 µM | 44.7 µM | 95.5 µM and 99.1 µM |  | 13.2 µM |  |  | 45.5 µM | 117 µM | > 250 µM |  |  |
| CC1=C(C(=O)CC(=O)C(=O)Nc2ccccc2C)Sc2ccccc2N1 | > 100 µM | > 100 µM | > 100 µM | > 100 µM | > 54.1 µM | > 100 µM | > 100 µM |  |  |  | > 100 µM |  |  |  |  |  |  | > 100 µM |  |  |
| Oc1c(I)cc(Cl)c2cccnc12 | > 100 µM | > 100 µM |  | 22 µM and > 100 µM | > 100 µM and 32.5 µM | 13.8 µM and > 100 µM | > 100 µM and 73.8 µM | 11.3 µM and 6.1 µM | 3.71 µM and 9.32 µM | 3.37 µM and 3.12 µM | 9.93 µM and 21.4 µM |  | 6.24 µM and 9.06 µM | 4.05 µM and 3.73 µM | 2.82 µM and 4.39 µM | 31.3 µM and 24 µM | 2.35 µM and 22.1 µM | 11.5 µM and 52.9 µM | 4.37 µM and 4.87 µM | 57.5 µM and 81.6 µM |
| O=C(Nc1ccc(Cl)c(Cl)c1)C1C(=O)N(c2ccc(Cl)c(Cl)c2)C(=O)/C1=N\O (centres undefined) | > 100 µM | > 100 µM | > 100 µM | > 100 µM | > 100 µM | > 100 µM | > 100 µM |  |  |  | > 100 µM |  |  |  |  |  |  | > 100 µM |  |  |
| O=C1c2ccoc2C(=O)c2oc(=O)ccc21 | > 78.8 µM | 31 µM | > 85.9 µM | > 57.9 µM | 11.5 µM | 13.5 µM | > 59.1 µM |  |  |  |  |  |  |  |  |  |  | 14.9 µM |  |  |
| Cn1cc(NC(=O)c2cc(NC(=O)CCCCCCCC(=O)Nc3cc(C(=O)Nc4cc(C(=O)NCCC(=N)N)n(C)c4)n(C)c3)cn2C)cc1C(=O)NCCC(=N)N | > 100 µM | > 100 µM | 56.7 µM | > 100 µM | > 100 µM | > 100 µM | 36.7 µM |  |  |  | 66.7 µM |  |  |  |  |  |  | > 100 µM |  |  |
| CCOC(=O)C1=CSC2=NC3=C(CCC/C3=C\c3cc(OC)c(OC)c(OC)c3)C(c3cc(OC)c(OC)c(OC)c3)N12 (centres undefined) | > 100 µM |  |  |  | > 100 µM | > 100 µM | > 100 µM | 1.34 µM |  |  |  |  |  | 1.54 µM | 1.32 µM | 4.33 µM |  |  | 0.751 µM | > 100 µM |
| NC(=O)C(=O)Cc1nc2ccccc2s1 | > 100 µM | > 100 µM | > 100 µM | > 100 µM | > 100 µM | > 100 µM | > 100 µM |  |  |  | > 100 µM |  |  |  |  |  |  | > 100 µM |  |  |
| O=c1[nH]c(=O)n(C2CC(O)C(O)C(CO)O2)cc1F (centres undefined) | > 100 µM | > 100 µM | > 100 µM | > 100 µM | > 100 µM | > 100 µM | > 100 µM |  |  |  | > 100 µM |  |  |  |  |  |  | > 100 µM |  |  |
| O=C1c2ccccc2-c2c1c1ccc([N+](=O)[O-])cc1c(=O)n2CCCCl | > 100 µM |  |  | > 100 µM | > 100 µM |  | > 100 µM | 65 µM |  | 2.1 µM | > 100 µM |  | 63.4 µM | 3.12 µM |  | 37.8 µM | 6.4 µM | > 100 µM | 15.2 µM | > 100 µM |
| Cc1c(C)c2ccc(OC(C)C(=O)O)cc2oc1=O (centres undefined) | > 100 µM | > 100 µM | > 100 µM | > 100 µM | > 100 µM | > 100 µM | > 100 µM |  |  |  | > 100 µM |  |  |  |  |  |  | > 100 µM |  |  |
| Nc1c(C(=O)Nc2ccccc2O)[n+]([O-])c2ccccc2[n+]1[O-] | > 100 µM | > 100 µM | > 100 µM | > 100 µM | 48.6 µM | > 100 µM |  |  |  |  | > 100 µM |  |  |  |  |  |  | > 100 µM |  |  |
